Read-outs that look alike come from different tables or passages of the source.

One experiment addresses Serotonin 5-HT2B (Homo sapiens, UniProt P41595). The experiment in a line: Receptor binding, Serotonin 5-HT2B. The procedure:
(§1) Receptor-ligand binding studies were performed as known to one skilled in the art. Compounds evaluated were LMP, the parent compound, the NDM LMP metabolite of LMP, and the sulfoxide metabolite of LMP. These studies verified receptor binding and affinity by the parent compound, as well as identified other potential receptors for the parent compound and its metabolites, and identified and verified receptors and receptor affinity for the metabolites.
(§2) Dopamine receptor affinity included binding to D1, D2, D3, D4, and D5 receptors. Serotonin receptor affinity included binding to 5-HT1A, 5-HT2A, 5-HT2B, 5-HT2, 5-HT5A, 5-HT6, and 5-HT7 receptors. Alpha adrenergic receptor affinity included binding to α1A, α1B, α1C, α2A, α2B, and α2C receptors. Muscarinic receptor affinity included binding to M1, M2, M3, M4, and M5 receptors. Binding to the histamine H1 receptor, the calcium ion channel receptor, and the sodium ion channel receptor were also evaluated. In each of the tables, the following abbreviations are used: LMP indicates the parent compound levomepromazine. NDM LMP indicates the N-desmethyl (N-desmethyl) metabolite. Sulfoxide indicates the sulfoxide metabolite. […] Ki (the inhibition constants of binding) indicate binding affinity.

A further experiment has as its target Muscarinic M3 (Homo sapiens, UniProt P20309). Briefly: Receptor binding, Muscarinic M3. Here is the method:
as §1, §2

The target of a further experiment is Serotonin 5-HT7 (Homo sapiens, UniProt P34969). The experiment in a line: Receptor binding, Serotonin 5-HT7. Here is the method: as §1, §2
The target in another experiment is T1, Muscarinic M4 (Homo sapiens, UniProt P08173).
T1 sequence (P08173 1-479): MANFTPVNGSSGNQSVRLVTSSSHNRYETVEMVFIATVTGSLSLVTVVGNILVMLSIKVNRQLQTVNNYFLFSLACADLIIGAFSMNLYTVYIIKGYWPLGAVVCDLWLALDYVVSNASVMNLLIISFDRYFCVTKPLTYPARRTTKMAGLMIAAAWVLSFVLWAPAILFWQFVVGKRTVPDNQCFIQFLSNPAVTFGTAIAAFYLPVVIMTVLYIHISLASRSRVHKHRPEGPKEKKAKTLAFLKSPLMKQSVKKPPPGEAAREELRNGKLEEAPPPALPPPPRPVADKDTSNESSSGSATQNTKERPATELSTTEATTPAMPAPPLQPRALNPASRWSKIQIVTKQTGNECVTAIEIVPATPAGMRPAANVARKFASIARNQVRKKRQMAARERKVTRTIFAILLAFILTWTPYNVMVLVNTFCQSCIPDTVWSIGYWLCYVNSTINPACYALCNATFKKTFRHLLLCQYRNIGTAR
Briefly: Receptor binding, Muscarinic M4. The procedure: as §1, §2

A further experiment deals with Dopamine D2 (Homo sapiens, UniProt P14416). Briefly: Receptor binding, Dopamine D2. Here is the method:
as §1, §2

The next experiment has as its target Serotonin 5-HT6 (Homo sapiens, UniProt P50406). The experiment in a line: Receptor binding, Serotonin 5-HT6. The procedure: as §1, §2
The target in the next experiment is Serotonin 5-HT2A (Homo sapiens, UniProt P28223). Briefly: Receptor binding, Serotonin 5-HT2A. Here is the method:
as §1, §2

Another experiment concerns muscarinic receptors. Briefly: Receptor affinity summary, muscarinic receptors. The following applies: for binding affinity to muscarinic receptors (in words): all receptors; for Relative Affinity: Muscarinic. Format: binding. Here is the method:
as §1, §2

For the next experiment, the target named is T2, Muscarinic M5 (Homo sapiens, UniProt P08912).
T2 sequence (P08912 1-532): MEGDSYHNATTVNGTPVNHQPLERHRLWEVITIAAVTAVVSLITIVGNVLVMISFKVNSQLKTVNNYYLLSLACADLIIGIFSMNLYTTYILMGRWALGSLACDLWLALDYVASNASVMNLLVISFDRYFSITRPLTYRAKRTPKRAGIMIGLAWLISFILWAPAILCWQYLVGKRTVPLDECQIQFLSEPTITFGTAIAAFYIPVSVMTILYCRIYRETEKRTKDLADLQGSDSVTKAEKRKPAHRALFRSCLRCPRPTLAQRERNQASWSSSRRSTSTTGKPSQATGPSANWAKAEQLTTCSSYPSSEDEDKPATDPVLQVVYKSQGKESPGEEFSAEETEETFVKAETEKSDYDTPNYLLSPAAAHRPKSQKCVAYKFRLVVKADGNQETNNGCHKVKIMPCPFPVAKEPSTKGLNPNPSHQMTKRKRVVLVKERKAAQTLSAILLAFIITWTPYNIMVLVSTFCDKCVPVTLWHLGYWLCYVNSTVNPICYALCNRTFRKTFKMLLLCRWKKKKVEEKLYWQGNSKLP
Briefly: Receptor binding, Muscarinic M5. The procedure:
as §1, §2

The test system of another experiment is α2 adrenergic receptors. Briefly: Receptor affinity summary, α2 adrenergic receptors. The conditions noted are these: for Relative Affinity: α2-Adrenergic. The format is binding. Set-up: key to Relative Affinity: ≧ indicates greater or equal affinity; = indicates about the same affinity; − indicates no affinity. Here is the method: as §1, §2
In a further experiment the target is Sodium Channel. Briefly: Receptor binding, Sodium Channel. Set-up: key to Relative Affinity: ≧ indicates greater or equal affinity; = indicates about the same affinity; − indicates no affinity. The procedure: as §1, §2
The target in another experiment is T3, Muscarinic M2 (Homo sapiens, UniProt P08172).
T3 sequence (P08172 1-466): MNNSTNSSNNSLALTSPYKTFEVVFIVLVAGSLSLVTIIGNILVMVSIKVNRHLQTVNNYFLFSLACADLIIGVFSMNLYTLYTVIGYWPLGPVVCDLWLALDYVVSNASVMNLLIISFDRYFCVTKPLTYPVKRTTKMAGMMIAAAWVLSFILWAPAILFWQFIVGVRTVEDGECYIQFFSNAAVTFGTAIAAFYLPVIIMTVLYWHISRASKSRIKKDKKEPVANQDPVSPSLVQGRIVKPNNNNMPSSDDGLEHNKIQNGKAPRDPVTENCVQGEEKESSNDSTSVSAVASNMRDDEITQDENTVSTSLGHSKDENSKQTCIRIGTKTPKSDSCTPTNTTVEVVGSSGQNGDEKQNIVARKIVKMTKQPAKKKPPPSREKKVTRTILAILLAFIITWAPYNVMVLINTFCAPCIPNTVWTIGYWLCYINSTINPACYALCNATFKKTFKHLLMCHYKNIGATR
The experiment in a line: Receptor binding, Muscarinic M2. The procedure: as §1, §2

The next experiment addresses Dopamine D5 (Homo sapiens, UniProt P21918). Briefly: Receptor binding, Dopamine D5. The procedure:
as §1, §2

Dopamine D2, sequence (P14416 whole entry): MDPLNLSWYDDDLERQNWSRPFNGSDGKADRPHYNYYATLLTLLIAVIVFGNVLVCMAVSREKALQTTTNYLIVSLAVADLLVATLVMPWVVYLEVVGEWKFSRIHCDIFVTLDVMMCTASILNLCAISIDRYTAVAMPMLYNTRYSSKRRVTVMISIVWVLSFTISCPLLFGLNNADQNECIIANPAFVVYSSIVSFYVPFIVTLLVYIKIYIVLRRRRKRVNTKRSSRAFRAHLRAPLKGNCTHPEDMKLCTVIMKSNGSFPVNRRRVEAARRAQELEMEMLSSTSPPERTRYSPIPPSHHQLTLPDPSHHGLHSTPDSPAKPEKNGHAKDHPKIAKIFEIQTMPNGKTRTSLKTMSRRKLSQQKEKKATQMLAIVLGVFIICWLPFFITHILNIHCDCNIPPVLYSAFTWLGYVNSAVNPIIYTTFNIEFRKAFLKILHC
Muscarinic M3, sequence (P20309 whole entry): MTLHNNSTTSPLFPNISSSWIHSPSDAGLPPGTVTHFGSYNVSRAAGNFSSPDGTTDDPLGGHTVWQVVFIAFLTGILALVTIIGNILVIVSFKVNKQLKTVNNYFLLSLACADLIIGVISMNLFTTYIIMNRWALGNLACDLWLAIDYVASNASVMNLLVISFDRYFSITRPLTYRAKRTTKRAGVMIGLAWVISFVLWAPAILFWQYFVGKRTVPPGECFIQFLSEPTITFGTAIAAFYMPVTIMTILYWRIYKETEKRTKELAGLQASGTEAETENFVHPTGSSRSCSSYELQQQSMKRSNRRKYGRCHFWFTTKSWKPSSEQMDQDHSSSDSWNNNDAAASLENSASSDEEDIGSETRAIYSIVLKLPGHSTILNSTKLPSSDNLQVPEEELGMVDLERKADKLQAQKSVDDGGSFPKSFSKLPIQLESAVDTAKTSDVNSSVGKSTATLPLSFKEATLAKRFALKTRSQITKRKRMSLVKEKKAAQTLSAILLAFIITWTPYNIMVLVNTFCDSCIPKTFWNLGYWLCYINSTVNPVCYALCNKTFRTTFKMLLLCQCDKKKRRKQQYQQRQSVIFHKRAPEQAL
Serotonin 5-HT7, sequence (P34969 whole entry): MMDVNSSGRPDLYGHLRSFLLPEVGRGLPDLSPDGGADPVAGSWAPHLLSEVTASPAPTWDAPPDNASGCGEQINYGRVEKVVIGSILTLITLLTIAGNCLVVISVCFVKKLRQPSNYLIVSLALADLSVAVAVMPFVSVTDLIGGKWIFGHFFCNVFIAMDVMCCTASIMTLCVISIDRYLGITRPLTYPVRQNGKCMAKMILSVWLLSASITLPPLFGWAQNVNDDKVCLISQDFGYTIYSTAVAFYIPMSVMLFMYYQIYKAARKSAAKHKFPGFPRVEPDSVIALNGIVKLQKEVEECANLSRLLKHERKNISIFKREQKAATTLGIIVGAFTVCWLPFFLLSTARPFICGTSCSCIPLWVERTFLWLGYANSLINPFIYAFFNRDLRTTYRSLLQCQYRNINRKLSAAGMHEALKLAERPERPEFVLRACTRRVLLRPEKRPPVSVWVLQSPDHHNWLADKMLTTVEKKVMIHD
Serotonin 5-HT2A, sequence (P28223 whole entry): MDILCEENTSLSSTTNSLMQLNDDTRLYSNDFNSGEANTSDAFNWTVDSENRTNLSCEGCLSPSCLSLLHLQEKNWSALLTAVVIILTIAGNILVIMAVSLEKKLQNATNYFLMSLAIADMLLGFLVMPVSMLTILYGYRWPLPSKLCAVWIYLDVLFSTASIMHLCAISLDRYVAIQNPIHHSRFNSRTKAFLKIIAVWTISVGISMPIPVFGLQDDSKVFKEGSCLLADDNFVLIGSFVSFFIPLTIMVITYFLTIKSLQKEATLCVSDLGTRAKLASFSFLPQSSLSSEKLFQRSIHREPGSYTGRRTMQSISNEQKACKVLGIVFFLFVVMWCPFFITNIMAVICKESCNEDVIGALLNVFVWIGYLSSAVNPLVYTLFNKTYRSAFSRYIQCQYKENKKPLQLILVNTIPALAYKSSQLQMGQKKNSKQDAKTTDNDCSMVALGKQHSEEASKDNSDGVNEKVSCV
Serotonin 5-HT6, sequence (P50406 whole entry): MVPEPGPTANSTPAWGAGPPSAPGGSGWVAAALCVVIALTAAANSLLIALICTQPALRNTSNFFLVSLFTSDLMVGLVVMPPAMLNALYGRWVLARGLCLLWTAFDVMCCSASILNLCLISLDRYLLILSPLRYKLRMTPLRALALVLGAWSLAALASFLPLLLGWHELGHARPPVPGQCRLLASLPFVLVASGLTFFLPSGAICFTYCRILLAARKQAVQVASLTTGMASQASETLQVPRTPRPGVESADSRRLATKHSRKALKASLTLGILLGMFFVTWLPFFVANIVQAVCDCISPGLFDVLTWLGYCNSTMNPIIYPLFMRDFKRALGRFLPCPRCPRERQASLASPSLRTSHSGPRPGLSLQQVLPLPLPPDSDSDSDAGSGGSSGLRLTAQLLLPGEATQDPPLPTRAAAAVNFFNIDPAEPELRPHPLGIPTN
Dopamine D5, sequence (P21918 whole entry): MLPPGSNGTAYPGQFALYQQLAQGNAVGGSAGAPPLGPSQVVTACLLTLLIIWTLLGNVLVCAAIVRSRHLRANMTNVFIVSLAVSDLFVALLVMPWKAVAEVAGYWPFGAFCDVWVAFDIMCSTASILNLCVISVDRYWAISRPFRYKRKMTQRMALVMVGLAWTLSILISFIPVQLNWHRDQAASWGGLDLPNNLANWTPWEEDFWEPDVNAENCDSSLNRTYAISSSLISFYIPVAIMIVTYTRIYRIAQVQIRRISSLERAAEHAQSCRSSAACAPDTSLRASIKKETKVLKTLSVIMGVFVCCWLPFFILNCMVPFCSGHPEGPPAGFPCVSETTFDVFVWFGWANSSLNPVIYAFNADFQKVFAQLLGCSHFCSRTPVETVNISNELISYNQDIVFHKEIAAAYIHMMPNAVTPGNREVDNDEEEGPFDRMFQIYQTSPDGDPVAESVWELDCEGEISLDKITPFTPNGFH
Serotonin 5-HT2B, sequence (P41595 whole entry): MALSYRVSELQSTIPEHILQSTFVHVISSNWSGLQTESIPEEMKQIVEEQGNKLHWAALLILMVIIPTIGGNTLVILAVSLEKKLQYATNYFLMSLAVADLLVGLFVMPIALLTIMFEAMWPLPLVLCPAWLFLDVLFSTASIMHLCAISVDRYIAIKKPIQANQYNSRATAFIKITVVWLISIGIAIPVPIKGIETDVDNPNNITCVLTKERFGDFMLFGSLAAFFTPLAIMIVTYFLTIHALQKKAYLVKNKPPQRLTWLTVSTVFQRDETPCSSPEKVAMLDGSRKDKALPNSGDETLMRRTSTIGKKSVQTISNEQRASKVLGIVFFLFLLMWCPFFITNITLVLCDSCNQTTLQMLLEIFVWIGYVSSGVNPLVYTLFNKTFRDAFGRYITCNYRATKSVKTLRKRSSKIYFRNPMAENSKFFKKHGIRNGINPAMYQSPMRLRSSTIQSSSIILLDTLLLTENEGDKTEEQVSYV

For the compound `COc1ccc2c(c1)N(C[C@H](C)CN(C)C)c1ccccc1S2` [LMP, Levomepromazine], the Ki on Serotonin 5-HT2B came to 19 nM; on Muscarinic M3, 39 nM; on Serotonin 5-HT7, 24 nM; at Muscarinic M4 it was 34 nM; on Dopamine D2, 8 nM; on Serotonin 5-HT6, 82 nM. In addition, the Ki was less than 4 nM on Serotonin 5-HT2A; 61 nM on Muscarinic M5; 1090 nM at Sodium Channel (read-out: Ki); 263 nM on Muscarinic M2; 180 nM at Dopamine D5. Also, the “binding affinity to muscarinic receptors (in words)” value in the experiment with muscarinic receptors is “moderate-to-high affinities”. Moreover, in the experiment on α2 adrenergic receptors, the “binding affinity to α2 adrenergic receptors (in words)” value is “demonstrated binding”.
On to `CNCC(C)CN1c2ccccc2Sc2ccc(OC)cc21` (stereo not drawn) [NDM LMP, R(+) 2-methoxy-10-2-methyl-3-monomethylaminopropyl phenothiazine], for which the Ki at Serotonin 5-HT2B was determined as 27 nM; at Muscarinic M3, 47 nM; at Serotonin 5-HT7, 18 nM; at Muscarinic M4 it was 88 nM; at Dopamine D2, 17 nM; on Serotonin 5-HT6 it was 98 nM. In addition, the Ki was less than 4 nM at Serotonin 5-HT2A; 60 nM on Muscarinic M5; 643 nM at Sodium Channel (read-out: Ki); 325 nM on Muscarinic M2; 243 nM on Dopamine D5. The “Relative Affinity” value with muscarinic receptors is reported as “LMP = NDM LMP > sulfoxide”; in the experiment with α2 adrenergic receptors it was “LMP = NDM LMP”; in the experiment on Sodium Channel, “NDM LMP > LMP”. Besides, the “binding affinity to muscarinic receptors (in words)” value in the experiment with muscarinic receptors is listed as “moderate-to-high affinities”. Further, the “binding affinity to α2 adrenergic receptors (in words)” value in the experiment on α2 adrenergic receptors was “demonstrated binding”.
For `COc1ccc2c(c1)N(C[C@H](C)CN(C)C)c1ccccc1[S+]2[O-]` (stereo partly shown) [Sulfoxide, levomepromazine sulfoxide], the inhibition constant Ki at Serotonin 5-HT2B is greater than 10000 nM; on Muscarinic M3, 551 nM; on Serotonin 5-HT7, greater than 10000 nM; on Muscarinic M4, 318 nM; on Dopamine D2, greater than 10000 nM; at Serotonin 5-HT6, greater than 10000 nM. For the same compound, the inhibitory constant (Ki) on Serotonin 5-HT2A is 410 nM; on Muscarinic M5, 481 nM; on Sodium Channel, “no affinity was detected”; at Sodium Channel (read-out: Ki), greater than 10000 nM; at Muscarinic M2, 1290 nM; on Dopamine D5 it was greater than 10000 nM. In addition, the figures for the “Relative Affinity” value in the experiment with muscarinic receptors, in the experiment on α2 adrenergic receptors and in the experiment with Sodium Channel were “LMP = NDM LMP > sulfoxide”, “−” and “−”, respectively. Besides, the “binding affinity to muscarinic receptors (in words)” value in the experiment with muscarinic receptors is on record as “low affinity”. Moreover, the “binding affinity to α2 adrenergic receptors (in words)” value in the experiment with α2 adrenergic receptors is listed as “no affinity was detected”.
